Test results: US9969758B2, “Antimicrobial compounds” (BIOMERIEUX, priority 2014, dated 2018)
Values after ≈ are worked out from the molar mass of the structure shown. Where two headings read alike, the source gives them in different places.

Columns and labels:
Assay in all cases: MIC by agar dilution
[1] = tested on: E. faecalis (11); type: cell-based, Enterococcus faecalis; conditions: E. faecalis (11)
Source text: (§1) A collection of 50 isolates of Staphylococci aureus included 36 strains of methicillin-resistant S. aureus (MRSA) frequently encountered in Europe, including strains isolated in Belgium, Finland, France, Germany and the United Kingdom. Another strain of MRSA, NCTC 11939, was included as a control, as well as a methicillin-sensitive control (NCTC 6571). Twelve other isolates of methicillin-sensitive Staphylococcus aureus (MSSA) recently collected from blood cultures were also included. Finally, 50 isolates of enterococci included two control strains (Enterococcus faecalis NCTC 755 and Enterococcus faecium NCTC 7171) and 48 isolates originating from clinical samples obtained from at least three different hospitals. The clinical isolates included E. faecalis (n=10), E. faecium (n=33), Enterococcus casseliflavus (n=3), Enterococcus gallinarum (n=2).
(§2) Determining the minimum inhibitory concentrations (MIC). All the MICs were determined using an agar dilution method. This required use of a medium without a defined antagonist (peptone-free), prepared as described previously with the inclusion of 2% horse blood lysed with saponin, 25.0 μg/mL of NAD and 25.0 μg/mL of hemin [17]. The compounds tested were dissolved in sterile deionised water and incorporated into the agar medium in a concentration range of 0.0031 to 8.0 μg/mL (0.016 to 32 μg/mL for gram-positive bacteria). All the isolates were prepared at a density equivalent to 0.5 McFarland units in sterile deionised water using a densitometer (approximately 1.5×10^8 CFU/mL), and then diluted to 1 for 15. An aliquot of 1 μL of each diluted suspension was then placed onto plates with a multispot inoculator to give the final recommended inoculation of 10 000 CFU/spot. The MICs of fosfomycin were determined by the same method, except that the IsoSensitest medium (Oxoid, Basingstoke, United Kingdom) was used, plus 25.0 μg/mL of glucose-6-phosphate (Sigma, Poole, United Kingdom) and an extended range of fosfomycin concentrations. All the dishes (including the antimicrobial-free controls) were incubated for 22 hours at 37° C. All the tests were performed on at least two independent replicates in order to examine the reproducibility.

[2] = tested on: glycopeptide-resistant enterococci; type: cell-based; conditions: GRE (43)
Source text: as §1, §2

[3] = tested on: methicillin-resistant Staphylococcus aureus; type: cell-based
Source text: as §1, §2

[4] = tested on: methicillin-sensitive Staphylococcus aureus; type: cell-based; conditions: MSSA (13)
Source text: as §1, §2

[5] = tested on: All Enterococci (50); type: cell-based
Source text: as §1, §2

[6] = tested on: E. coli (53); type: cell-based, Escherichia coli; conditions: E. coli (53)
Source text: (§3) Bacterial isolates. […] These included Citrobacter freundii (n=5), other species of Citrobacter (n=4), Enterobacter aerogenes (n=1), Enterobacter cloacae (n=27), Escherichia coli (n=53), Klebsiella oxytoca (n=5), Klebsiella pneumoniae (n=87), Kluyvera spp (n=1), Proteus mirabilis (n=8), Providencia rettgeri (n=2), Salmonella spp (n=3), and Serratia marcescens (n=1). Among these 197 isolates, there were 128 (65%) carbapenemase producers, including; 87 with NDM-1, 9 with IMP, 11 with KPC, 14 with OXA-48 and 7 with VIM. The majority of the carbapenemase producers jointly produced broad-spectrum β-lactamases (BSBL) or cephalosporinases (AmpC β-lactamases), but the latter are not documented for the sake of clarity.
as §2

[7] = tested on: All S. aureus (50); type: cell-based, Staphylococcus aureus; conditions: All S. aureus (50)
Source text: as §1, §2

[8] = tested on: K. pneumoniae (87); type: cell-based, Klebsiella pneumoniae; conditions: K. pneumoniae (87)
Source text: as §3, §2

[9] = tested on: AmpC (22); type: cell-based, Enterobacteriaceae
Source text: as §3, §2

[10] = tested on: E. faecium (34); type: cell-based, Enterococcus faecium
Source text: as §1, §2

[11] = tested on: E. cloacae (27); type: cell-based, Enterobacter cloacae; conditions: E. cloacae (27)
Source text: as §3, §2

[12] = tested on: Enterobacteriaceae with a broad-spectrum β-lactamase; type: cell-based
Source text: as §3, §2

[13] = tested on: carbapenemase-producing Enterobacteriaceae; type: cell-based
Source text: as §3, §2

[14] = tested on: Enterobacteriaceae (197); type: cell-based; conditions: Enterobacteriaceae (197)
Source text: as §3, §2

[15] = Staphylococcus aureus, read-out: MIC50
[16] = Staphylococcus aureus, read-out: MIC90
[17] = Staphylococcus aureus, read-out: Modal MIC (most frequent MIC)
[18] = read-out: Modal MIC (most frequent MIC)

Work on `C[C@H](NC(=O)[C@H](CCl)NC(=O)[C@@H](N)CCl)P(=O)(O)O` [β-Cl-Ala-β-Cl-Alafosfalin, β-chloro-L-alanyl-β-chloro-L-alanyl-L-1-aminoethylphosphonic acid] yielded an MIC50 ([1]; Enterococcus faecalis, read-out: MIC50) of 0.25 µg/mL (≈ 0.744 µM), an MIC90 ([1]; Enterococcus faecalis, read-out: MIC90) of 4 µg/mL (≈ 11.9 µM) and an MIC ([1]; Enterococcus faecalis, read-out: Modal MIC (most frequent MIC)) of 0.25 µg/mL (≈ 0.744 µM). For the same compound, the MIC50 ([2]; read-out: MIC50) was 8 µg/mL (≈ 23.8 µM), the MIC90 ([2]; read-out: MIC90) was 16 µg/mL (≈ 47.6 µM) and the “MIC Range” value ([3]; MRSA (37)) was 2 to 16 µg/mL. For the same compound, the MIC ([3]; Staphylococcus aureus, MRSA, read-out: Modal MIC (most frequent MIC)) was 16 µg/mL (≈ 47.6 µM), the MIC50 ([3]; Staphylococcus aureus, MRSA (37), read-out: MIC50) was 16 µg/mL (≈ 47.6 µM) and the MIC90 ([3]; Staphylococcus aureus, MRSA (37), read-out: MIC90) was 16 µg/mL (≈ 47.6 µM). The “MIC Range” value [4] was 4 to 16 µg/mL, the MIC50 [4, 15] was 16 µg/mL (≈ 47.6 µM) and the MIC90 [4, 16] was 16 µg/mL (≈ 47.6 µM). For the same compound, the MIC [4, 17] was 16 µg/mL (≈ 47.6 µM), the MIC50 ([5]; All Enterococci (50), read-out: MIC50) was 8 µg/mL (≈ 23.8 µM) and the MIC90 ([5]; All Enterococci (50), read-out: MIC90) was 16 µg/mL (≈ 47.6 µM). The MIC ([5]; All Enterococci (50), read-out: Modal MIC (most frequent MIC)) was 8 µg/mL (≈ 23.8 µM), the “MIC Range” value [6] was ≤0.031-1 ^ μg/mL and the MIC50 ([6]; Escherichia coli, read-out: MIC50) was 0.25 µg/mL (≈ 0.744 µM). For the same compound, the MIC90 ([6]; Escherichia coli, read-out: MIC90) was 1 µg/mL (≈ 2.98 µM), the MIC ([6]; Escherichia coli, read-out: Modal MIC (most frequent MIC)) was 0.25 µg/mL (≈ 0.744 µM) and the “MIC Range” value [7] was 2 to 16 µg/mL. The MIC50 [7, 15] was 16 µg/mL (≈ 47.6 µM), the MIC90 [7, 16] was 16 µg/mL (≈ 47.6 µM) and the MIC [7, 17] was 16 µg/mL (≈ 47.6 µM). For the same compound, the MIC50 ([8]; Klebsiella pneumoniae, read-out: MIC50) was 4 µg/mL (≈ 11.9 µM), the MIC90 ([8]; Klebsiella pneumoniae, read-out: MIC90) was over 8 µg/mL and the MIC ([8]; Klebsiella pneumoniae, read-out: Modal MIC (most frequent MIC)) was 4 µg/mL (≈ 11.9 µM). It also gave an MIC90 [9] of over 8 µg/mL, an MIC [9, 18] of over 8 µg/mL and an MIC50 ([10]; Enterococcus faecium, E. faecium (34), read-out: MIC50) of 8 µg/mL (≈ 23.8 µM). The MIC90 ([10]; Enterococcus faecium, E. faecium (34), read-out: MIC90) was 8 µg/mL (≈ 23.8 µM), the MIC ([10]; Enterococcus faecium, E. faecium (34), read-out: Modal MIC (most frequent MIC)) was 8 µg/mL (≈ 23.8 µM) and the “MIC Range” value [11] was 0.25 to 8 µg/mL. It also gave an MIC50 ([11]; Enterobacter cloacae, read-out: MIC50) of 1 µg/mL (≈ 2.98 µM), an MIC90 ([11]; Enterobacter cloacae, read-out: MIC90) of 4 µg/mL (≈ 11.9 µM) and an MIC ([11]; Enterobacter cloacae, read-out: Modal MIC (most frequent MIC)) of 1 µg/mL (≈ 2.98 µM). For the same compound, the MIC50 [12] was 4 µg/mL (≈ 11.9 µM), the MIC90 [12] was over 8 µg/mL and the MIC [12, 18] was over 8 µg/mL. For the same compound, the MIC50 [13] was 2 µg/mL (≈ 5.95 µM), the MIC90 [13] was 8 µg/mL (≈ 23.8 µM) and the MIC [13, 18] was 4 µg/mL (≈ 11.9 µM). For the same compound, the MIC50 ([14]; read-out: MIC50) was 2 µg/mL (≈ 5.95 µM), the MIC90 ([14]; read-out: MIC90) was over 8 µg/mL and the MIC [14, 18] was 4 µg/mL (≈ 11.9 µM).
With `C[C@H](N)C(=O)N[C@@H](C)C(=O)N[C@@H](C)P(=O)(O)O` [Di-alanyl fosfalin, L-alanyl-L-alanyl-L-1-aminoethylphosphonic acid] the MIC50 [1] was 0.063 µg/mL (≈ 0.236 µM), the MIC90 [1] was 0.5 µg/mL (≈ 1.87 µM) and the “Modal MIC (most frequent MIC)” value [1] was 0.031 µg/mL. For the same compound, the MIC50 [2] was 0.5 µg/mL (≈ 1.87 µM), the MIC90 [2] was over 32 µg/mL and the “Modal MIC (most frequent MIC)” value [2] was 0.5 µg/mL. The MIC50 ([3]; MRSA (37)) was 8 µg/mL (≈ 29.9 µM), the MIC90 ([3]; MRSA (37)) was 16 µg/mL (≈ 59.9 µM) and the “MIC Range” value ([3]; MRSA (37)) was 0.5 to 32 µg/mL. For the same compound, the “Modal MIC (most frequent MIC)” value ([3]; MRSA (37)) was 4 µg/mL, the MIC50 [4] was 8 µg/mL (≈ 29.9 µM) and the MIC90 [4] was 16 µg/mL (≈ 59.9 µM). The “MIC Range” value [4] was 0.5 to 32 µg/mL, the “Modal MIC (most frequent MIC)” value [4] was 16 µg/mL and the MIC50 ([5]; All Enterococci (50)) was 0.5 µg/mL (≈ 1.87 µM). The MIC90 ([5]; All Enterococci (50)) was 2 µg/mL (≈ 7.48 µM), the “Modal MIC (most frequent MIC)” value ([5]; All Enterococci (50)) was 0.5 µg/mL and the “MICs lower than those of alafosfalin, in certain cases” value ([5]; enterococci) was 256 times. The “MICs lower than those of alafosfalin, on average” value ([5]; enterococci) was about 16 times, the MIC50 [6] was 0.5 µg/mL (≈ 1.87 µM) and the MIC90 [6] was 2 µg/mL (≈ 7.48 µM). For the same compound, the “Modal MIC (most frequent MIC)” value [6] was 0.25 µg/mL, the MIC50 [7] was 8 µg/mL (≈ 29.9 µM) and the MIC90 [7] was 16 µg/mL (≈ 59.9 µM). For the same compound, the “MIC Range” value [7] was 0.5 to 32 µg/mL, the “Modal MIC (most frequent MIC)” value [7] was 4 µg/mL and the MIC50 [8] was over 8 µg/mL. The MIC90 [8] was over 8 µg/mL, the “Modal MIC (most frequent MIC)” value [8] was over 8 µg/mL and the MIC50 ([9]; AmpC (22)) was over 8 µg/mL. For the same compound, the MIC90 ([9]; AmpC (22)) was over 8 µg/mL, the “Modal MIC (most frequent MIC)” value ([9]; AmpC (22)) was over 8 µg/mL and the “concentration by which all isolates were inhibited” value ([10]; 34 E. faecium isolates (including 31 vancomycin-resistant)) was 4 µg/mL. For the same compound, the MIC50 ([10]; E. faecium (34)) was 0.5 µg/mL (≈ 1.87 µM), the MIC90 ([10]; E. faecium (34)) was 2 µg/mL (≈ 7.48 µM) and the “MIC Range” value ([10]; E. faecium (34)) was ≤0.016-4 ^ μg/mL. The “Modal MIC (most frequent MIC)” value ([10]; E. faecium (34)) was 0.5 µg/mL, the MIC50 [11] was over 8 µg/mL and the MIC90 [11] was over 8 µg/mL. The “Modal MIC (most frequent MIC)” value [11] was 4 µg/mL, the MIC50 ([12]; BSBL (47)) was 8 µg/mL (≈ 29.9 µM) and the MIC90 ([12]; BSBL (47)) was over 8 µg/mL. The “Modal MIC (most frequent MIC)” value ([12]; BSBL (47)) was over 8 µg/mL, the MIC50 ([13]; CPE (128)) was 8 µg/mL (≈ 29.9 µM) and the MIC90 ([13]; CPE (128)) was over 8 µg/mL. For the same compound, the “Modal MIC (most frequent MIC)” value ([13]; CPE (128)) was over 8 µg/mL, the MIC50 [14] was 8 µg/mL (≈ 29.9 µM) and the MIC90 [14] was over 8 µg/mL. For the same compound, the “Modal MIC (most frequent MIC)” value [14] was over 8 µg/mL.
